Data published in ChEMBL document CHEMBL4507304, “Data for DCP probe TP-021” (2021).

How the values were obtained:
[1] = target: Serine/threonine-protein kinase NLK (Homo sapiens) (UniProt Q9UBE8); conditions: Compound concentration 1000.0 nM
[2] = target: Calcium/calmodulin-dependent protein kinase type II subunit gamma (Homo sapiens) (UniProt Q13555); conditions: Compound concentration 1000.0 nM
[3] = target: Cyclin-dependent kinase 18 (Homo sapiens) (UniProt Q07002); conditions: Compound concentration 1000.0 nM
[4] = target: Rhodopsin kinase GRK7 (Homo sapiens) (UniProt Q8WTQ7); conditions: Compound concentration 1000.0 nM
Rhodopsin kinase GRK7 (Homo sapiens), sequence (Q8WTQ7 whole entry): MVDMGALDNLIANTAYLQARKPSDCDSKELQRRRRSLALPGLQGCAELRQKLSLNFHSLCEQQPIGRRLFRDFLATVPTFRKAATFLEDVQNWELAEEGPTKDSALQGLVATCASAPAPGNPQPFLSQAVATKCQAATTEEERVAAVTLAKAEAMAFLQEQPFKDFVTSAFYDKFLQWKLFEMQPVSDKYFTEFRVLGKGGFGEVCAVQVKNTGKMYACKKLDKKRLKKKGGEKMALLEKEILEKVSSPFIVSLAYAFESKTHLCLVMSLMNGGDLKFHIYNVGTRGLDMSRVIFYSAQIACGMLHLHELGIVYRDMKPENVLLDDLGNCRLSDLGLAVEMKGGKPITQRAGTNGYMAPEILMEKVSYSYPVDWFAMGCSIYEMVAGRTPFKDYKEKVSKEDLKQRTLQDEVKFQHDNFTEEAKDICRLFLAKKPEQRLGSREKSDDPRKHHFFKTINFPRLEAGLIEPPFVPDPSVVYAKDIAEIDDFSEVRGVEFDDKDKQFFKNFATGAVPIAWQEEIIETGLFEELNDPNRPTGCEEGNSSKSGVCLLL

[5] = target: ALK tyrosine kinase receptor (Homo sapiens) (UniProt Q9UM73); conditions: Compound concentration 1000.0 nM
[6] = target: Calcium/calmodulin-dependent protein kinase type II subunit alpha (Homo sapiens) (UniProt Q9UQM7); conditions: Compound concentration 1000.0 nM
Calcium/calmodulin-dependent protein kinase type II subunit alpha (Homo sapiens), sequence (Q9UQM7 whole entry): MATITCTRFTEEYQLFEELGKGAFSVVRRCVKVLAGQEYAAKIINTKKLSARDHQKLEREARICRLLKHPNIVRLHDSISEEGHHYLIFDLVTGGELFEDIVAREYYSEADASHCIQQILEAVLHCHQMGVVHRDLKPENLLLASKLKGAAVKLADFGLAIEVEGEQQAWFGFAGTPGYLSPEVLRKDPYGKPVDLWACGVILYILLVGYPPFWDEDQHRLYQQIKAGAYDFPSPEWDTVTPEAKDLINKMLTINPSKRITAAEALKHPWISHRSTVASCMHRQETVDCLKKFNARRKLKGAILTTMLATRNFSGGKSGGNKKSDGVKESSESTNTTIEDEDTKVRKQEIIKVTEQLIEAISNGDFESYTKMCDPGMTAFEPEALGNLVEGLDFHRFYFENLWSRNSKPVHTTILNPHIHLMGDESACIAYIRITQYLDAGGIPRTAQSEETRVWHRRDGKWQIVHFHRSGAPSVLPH

[7] = target: Inhibitor of nuclear factor kappa-B kinase subunit alpha (Homo sapiens) (UniProt O15111); conditions: Compound concentration 1000.0 nM
[8] = tested on: Tyrosine-protein kinase ABL1 (Homo sapiens), P00519 [F317L]; conditions: Compound concentration 1000.0 nM
[9] = target: Serine/threonine-protein kinase RIO3 (Homo sapiens) (UniProt O14730); conditions: Compound concentration 1000.0 nM
Serine/threonine-protein kinase RIO3 (Homo sapiens), sequence (O14730 whole entry): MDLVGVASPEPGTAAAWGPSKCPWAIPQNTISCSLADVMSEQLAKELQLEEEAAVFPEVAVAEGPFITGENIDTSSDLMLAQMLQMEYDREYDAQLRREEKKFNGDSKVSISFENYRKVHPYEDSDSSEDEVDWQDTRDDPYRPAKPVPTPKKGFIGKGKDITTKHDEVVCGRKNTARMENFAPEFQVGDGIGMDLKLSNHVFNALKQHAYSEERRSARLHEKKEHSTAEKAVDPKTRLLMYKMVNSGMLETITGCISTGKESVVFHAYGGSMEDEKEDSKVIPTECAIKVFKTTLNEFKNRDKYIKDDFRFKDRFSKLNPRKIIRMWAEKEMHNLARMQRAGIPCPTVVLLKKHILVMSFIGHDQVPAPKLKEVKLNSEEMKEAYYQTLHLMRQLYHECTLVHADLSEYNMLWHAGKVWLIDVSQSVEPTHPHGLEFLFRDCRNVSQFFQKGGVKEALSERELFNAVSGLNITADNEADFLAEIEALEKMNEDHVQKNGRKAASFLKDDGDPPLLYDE

[10] = target: Death-associated protein kinase 1 (Homo sapiens) (UniProt P53355); conditions: Compound concentration 1000.0 nM
Death-associated protein kinase 1 (Homo sapiens), sequence (P53355 whole entry, looked up, canonical isoform): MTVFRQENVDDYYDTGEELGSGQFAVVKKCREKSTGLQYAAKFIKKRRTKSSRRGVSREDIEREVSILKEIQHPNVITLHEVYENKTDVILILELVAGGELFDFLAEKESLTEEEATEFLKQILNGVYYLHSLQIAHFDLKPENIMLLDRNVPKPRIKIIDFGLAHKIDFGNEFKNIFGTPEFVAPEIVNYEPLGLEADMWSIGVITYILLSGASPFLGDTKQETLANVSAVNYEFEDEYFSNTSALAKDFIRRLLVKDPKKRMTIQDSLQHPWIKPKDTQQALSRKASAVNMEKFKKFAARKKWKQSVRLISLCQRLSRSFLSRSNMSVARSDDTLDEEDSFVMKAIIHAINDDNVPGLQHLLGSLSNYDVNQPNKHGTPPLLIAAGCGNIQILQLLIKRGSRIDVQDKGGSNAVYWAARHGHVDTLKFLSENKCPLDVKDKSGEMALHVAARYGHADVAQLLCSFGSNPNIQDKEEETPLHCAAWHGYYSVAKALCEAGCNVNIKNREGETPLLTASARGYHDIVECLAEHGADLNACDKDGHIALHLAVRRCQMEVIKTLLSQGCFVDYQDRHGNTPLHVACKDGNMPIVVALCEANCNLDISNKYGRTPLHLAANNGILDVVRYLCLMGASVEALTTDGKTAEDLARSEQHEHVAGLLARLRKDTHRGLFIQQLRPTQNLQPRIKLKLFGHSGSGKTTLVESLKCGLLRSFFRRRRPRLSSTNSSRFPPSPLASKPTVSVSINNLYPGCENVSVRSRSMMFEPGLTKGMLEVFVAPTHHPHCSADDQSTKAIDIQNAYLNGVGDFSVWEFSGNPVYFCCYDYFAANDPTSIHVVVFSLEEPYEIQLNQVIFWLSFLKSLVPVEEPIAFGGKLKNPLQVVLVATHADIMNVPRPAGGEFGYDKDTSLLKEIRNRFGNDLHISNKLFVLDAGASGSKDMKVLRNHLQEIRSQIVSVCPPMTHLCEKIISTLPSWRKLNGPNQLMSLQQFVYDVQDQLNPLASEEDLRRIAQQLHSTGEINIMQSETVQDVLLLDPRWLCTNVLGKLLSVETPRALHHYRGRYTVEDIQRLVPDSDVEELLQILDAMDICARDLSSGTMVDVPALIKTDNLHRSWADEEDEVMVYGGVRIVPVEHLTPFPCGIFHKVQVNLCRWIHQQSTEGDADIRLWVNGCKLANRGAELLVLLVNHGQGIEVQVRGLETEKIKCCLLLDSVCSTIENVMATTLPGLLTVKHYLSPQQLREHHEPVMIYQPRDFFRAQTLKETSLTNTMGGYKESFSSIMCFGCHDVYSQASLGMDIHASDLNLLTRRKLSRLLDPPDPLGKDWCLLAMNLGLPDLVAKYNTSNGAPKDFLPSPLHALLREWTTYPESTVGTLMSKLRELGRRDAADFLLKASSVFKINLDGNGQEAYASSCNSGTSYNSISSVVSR

[11] = target: Casein kinase I isoform delta (Homo sapiens) (UniProt P48730); conditions: Compound concentration 1000.0 nM
Casein kinase I isoform delta (Homo sapiens), sequence (P48730 whole entry, looked up, canonical isoform): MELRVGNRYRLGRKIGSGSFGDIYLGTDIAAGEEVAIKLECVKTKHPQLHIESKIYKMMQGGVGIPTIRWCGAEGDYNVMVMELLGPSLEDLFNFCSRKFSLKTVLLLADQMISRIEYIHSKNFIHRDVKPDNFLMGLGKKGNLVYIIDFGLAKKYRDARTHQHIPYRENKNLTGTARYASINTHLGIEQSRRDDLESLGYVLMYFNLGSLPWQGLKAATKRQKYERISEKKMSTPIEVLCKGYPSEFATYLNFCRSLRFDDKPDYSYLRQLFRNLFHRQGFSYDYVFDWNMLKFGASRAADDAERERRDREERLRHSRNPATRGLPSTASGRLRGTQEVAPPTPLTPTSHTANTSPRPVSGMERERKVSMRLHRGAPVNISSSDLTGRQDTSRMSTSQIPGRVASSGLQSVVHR

[12] = target: Serine/threonine-protein kinase TBK1 (Homo sapiens) (UniProt Q9UHD2); conditions: Compound concentration 1000.0 nM
[13] = target: Serine/threonine-protein kinase MARK2 (Homo sapiens) (UniProt Q7KZI7); conditions: Compound concentration 1000.0 nM
[14] = target: Bone morphogenetic protein receptor type-2 (Homo sapiens) (UniProt Q13873); conditions: Compound concentration 1000.0 nM
[15] = target: Mitogen-activated protein kinase kinase kinase kinase 4 (Homo sapiens) (UniProt O95819); conditions: Compound concentration 1000.0 nM
[16] = tested on: Tyrosine-protein kinase ABL1 (Homo sapiens), P00519 [Y253F]; conditions: Compound concentration 1000.0 nM
[17] = target: Tyrosine-protein kinase Lyn (Homo sapiens) (UniProt P07948); conditions: Compound concentration 1000.0 nM
[18] = target: Dual specificity protein kinase TTK (Homo sapiens) (UniProt P33981); conditions: Compound concentration 1000.0 nM
[19] = target: Dual specificity mitogen-activated protein kinase kinase 1 (Homo sapiens) (UniProt Q02750); conditions: Compound concentration 1000.0 nM
[20] = target: Cyclin-dependent kinase 5 (Homo sapiens) (UniProt Q00535); conditions: Compound concentration 1000.0 nM
Cyclin-dependent kinase 5 (Homo sapiens), sequence (Q00535 whole entry, looked up): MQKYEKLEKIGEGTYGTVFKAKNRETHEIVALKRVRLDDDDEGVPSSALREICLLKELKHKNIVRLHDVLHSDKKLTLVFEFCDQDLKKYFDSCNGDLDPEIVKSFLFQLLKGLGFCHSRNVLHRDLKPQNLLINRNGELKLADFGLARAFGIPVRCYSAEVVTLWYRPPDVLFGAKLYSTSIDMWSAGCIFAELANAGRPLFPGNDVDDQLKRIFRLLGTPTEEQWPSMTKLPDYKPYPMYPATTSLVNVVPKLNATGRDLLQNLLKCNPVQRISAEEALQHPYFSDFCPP

[21] = target: Maternal embryonic leucine zipper kinase (Homo sapiens) (UniProt Q14680); conditions: Compound concentration 1000.0 nM
[22] = tested on: ALK tyrosine kinase receptor (Homo sapiens), Q9UM73 [C1156Y]; conditions: Compound concentration 1000.0 nM
[23] = target: Activin receptor type-1B (Homo sapiens) (UniProt P36896); conditions: Compound concentration 1000.0 nM
Activin receptor type-1B (Homo sapiens), sequence (P36896 whole entry): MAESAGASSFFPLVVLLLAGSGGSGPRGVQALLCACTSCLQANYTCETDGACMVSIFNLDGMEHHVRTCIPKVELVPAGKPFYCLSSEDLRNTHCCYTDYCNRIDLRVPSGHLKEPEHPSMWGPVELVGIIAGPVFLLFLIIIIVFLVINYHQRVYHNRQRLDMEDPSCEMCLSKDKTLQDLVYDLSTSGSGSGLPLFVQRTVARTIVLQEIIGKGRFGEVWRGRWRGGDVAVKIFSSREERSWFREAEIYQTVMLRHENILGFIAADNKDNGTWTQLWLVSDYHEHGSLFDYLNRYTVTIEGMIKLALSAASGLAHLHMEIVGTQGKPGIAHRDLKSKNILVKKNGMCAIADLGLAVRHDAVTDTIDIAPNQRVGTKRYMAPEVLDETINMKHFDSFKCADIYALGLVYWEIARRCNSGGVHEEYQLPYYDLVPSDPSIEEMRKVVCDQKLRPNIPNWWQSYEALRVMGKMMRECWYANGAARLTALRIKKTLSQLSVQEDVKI

[24] = target: Protein kinase C theta type (Homo sapiens) (UniProt Q04759); conditions: Compound concentration 1000.0 nM
[25] = target: Ribosomal protein S6 kinase alpha-4 (Homo sapiens) (UniProt O75676); conditions: Compound concentration 1000.0 nM
[26] = target: Dual specificity tyrosine-phosphorylation-regulated kinase 1B (Homo sapiens) (UniProt Q9Y463); conditions: Compound concentration 1000.0 nM
[27] = target: Wee1-like protein kinase 2 (Homo sapiens) (UniProt P0C1S8); conditions: Compound concentration 1000.0 nM
[28] = target: 5'-AMP-activated protein kinase catalytic subunit alpha-1 (Homo sapiens) (UniProt Q13131); conditions: Compound concentration 1000.0 nM
[29] = target: Sigma non-opioid intracellular receptor 1 (Homo sapiens) (UniProt Q99720); conditions: Compound concentration 10.0 uM
Sigma non-opioid intracellular receptor 1 (Homo sapiens), sequence (Q99720 whole entry): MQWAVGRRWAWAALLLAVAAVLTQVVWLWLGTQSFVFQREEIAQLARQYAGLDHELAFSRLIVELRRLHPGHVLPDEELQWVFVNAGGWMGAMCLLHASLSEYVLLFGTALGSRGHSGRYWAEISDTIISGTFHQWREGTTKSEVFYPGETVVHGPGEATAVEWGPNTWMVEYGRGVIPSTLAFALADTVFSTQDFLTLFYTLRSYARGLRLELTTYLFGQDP

[30] = target: Serine/threonine-protein kinase PLK3 (Homo sapiens) (UniProt Q9H4B4); conditions: Compound concentration 1000.0 nM
[31] = target: GABA-A receptor; anion channel (Rattus norvegicus) (UniProt O09028+P15431+P18506+P18508+P19969+P20236+P23574+P23576+P28471+P28473+P30191+P62813+P63079+P63138+Q91ZM7+Q9ES14); conditions: Compound concentration 10.0 uM
[32] = target: Serine/threonine-protein kinase B-raf (Homo sapiens) (UniProt P15056); conditions: Compound concentration 1000.0 nM
[33] = target: Tyrosine-protein kinase ABL1 (Homo sapiens) (UniProt P00519); conditions: Compound concentration 1000.0 nM
[34] = target: Non-receptor tyrosine-protein kinase TYK2 (Homo sapiens) (UniProt P29597); conditions: Compound concentration 1000.0 nM
[35] = target: 5-hydroxytryptamine receptor 7 (Homo sapiens) (UniProt P34969); conditions: Compound concentration 10.0 uM
[36] = target: Ribosomal protein S6 kinase alpha-1 (Homo sapiens) (UniProt Q15418); conditions: Compound concentration 1000.0 nM
[37] = target: Cytoplasmic tyrosine-protein kinase BMX (Homo sapiens) (UniProt P51813); conditions: Compound concentration 1000.0 nM
[38] = target: Protein-tyrosine kinase 6 (Homo sapiens) (UniProt Q13882); conditions: Compound concentration 1000.0 nM
Protein-tyrosine kinase 6 (Homo sapiens), sequence (Q13882 whole entry, looked up): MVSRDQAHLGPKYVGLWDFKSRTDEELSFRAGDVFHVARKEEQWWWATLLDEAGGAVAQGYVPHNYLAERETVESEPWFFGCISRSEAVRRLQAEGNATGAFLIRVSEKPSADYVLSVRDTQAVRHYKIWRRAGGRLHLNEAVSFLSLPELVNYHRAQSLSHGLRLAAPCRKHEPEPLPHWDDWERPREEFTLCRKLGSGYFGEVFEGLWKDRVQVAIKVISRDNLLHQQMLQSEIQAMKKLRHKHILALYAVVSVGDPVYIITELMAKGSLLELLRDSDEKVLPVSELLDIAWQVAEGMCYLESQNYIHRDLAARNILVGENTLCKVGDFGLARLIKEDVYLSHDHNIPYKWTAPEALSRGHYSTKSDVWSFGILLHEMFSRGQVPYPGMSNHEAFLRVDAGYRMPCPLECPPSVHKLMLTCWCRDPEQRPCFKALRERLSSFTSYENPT

[39] = target: Tyrosine-protein kinase Fes/Fps (Homo sapiens) (UniProt P07332); conditions: Compound concentration 1000.0 nM
[40] = target: Serine/threonine-protein kinase TAO2 (Homo sapiens) (UniProt Q9UL54); conditions: Compound concentration 1000.0 nM
[41] = tested on: Receptor-type tyrosine-protein kinase FLT3 (Homo sapiens), P36888 [N841I]; conditions: Compound concentration 1000.0 nM
[42] = target: Phosphatidylinositol 3-kinase catalytic subunit type 3 (Homo sapiens) (UniProt Q8NEB9); conditions: Compound concentration 1000.0 nM
[43] = target: MAP kinase-activated protein kinase 5 (Homo sapiens) (UniProt Q8IW41); conditions: Compound concentration 1000.0 nM
[44] = target: Phosphatidylinositol 4-phosphate 3-kinase C2 domain-containing subunit beta (Homo sapiens) (UniProt O00750); conditions: Compound concentration 1000.0 nM

N#Cc1ccc(Nc2ccc3[nH]c(=O)[nH]c3c2)c(Cl)c1
inactive: residual activity [1] 100% | residual activity [2] 78% | residual activity [3] 100% | residual activity [4] 100% | residual activity [5] 100% | residual activity [6] 84% | residual activity [7] 100% | residual activity [8] 100% | residual activity [9] 100% | residual activity [10] 100% | residual activity [11] 100% | residual activity [12] 100% | residual activity [13] 78% | residual activity [14] 91% | residual activity [15] 77% | residual activity [16] 87% | residual activity [17] 78% | residual activity [18] 88% | residual activity [19] 88% | residual activity [20] 100% | residual activity [21] 95% | residual activity [22] 100% | residual activity [23] 100% | residual activity [24] 90% | residual activity [25] 95% | residual activity [26] 83% | residual activity [27] 100% | residual activity [28] 100% | inhibition [29] 14% | residual activity [30] 84% | inhibition [31] 15.5% | residual activity [32] 100% | residual activity [33] 100% | residual activity [34] 100% | inhibition [35] 8.12% | residual activity [36] 93% | residual activity [37] 100% | residual activity [38] 100% | residual activity [39] 100% | residual activity [40] 100% | residual activity [41] 77% | residual activity [42] 100% | residual activity [43] 92% | residual activity [44] 99%

O=C1CCc2cc(Nc3cc(OC4CCOCC4)c([N+](=O)[O-])cc3Cl)ccc2N1
inactive: residual activity [1] 100% | residual activity [2] 100% | residual activity [3] 100% | residual activity [4] 100% | residual activity [5] 82% | residual activity [6] 85% | residual activity [7] 100% | residual activity [8] 74% | residual activity [9] 100% | residual activity [10] 90% | residual activity [11] 90% | residual activity [12] 100% | residual activity [13] 71% | residual activity [14] 92% | residual activity [15] 100% | residual activity [16] 79% | residual activity [17] 93% | residual activity [18] 87% | residual activity [19] 72% | residual activity [20] 97% | residual activity [21] 77% | residual activity [22] 91% | residual activity [23] 93% | residual activity [24] 92% | residual activity [25] 72% | residual activity [26] 74% | residual activity [27] 96% | residual activity [28] 100% | inhibition [29] 11.7% | residual activity [30] 88% | inhibition [31] 12.7% | residual activity [32] 100% | residual activity [33] 98% | residual activity [34] 100% | inhibition [35] 12.3% | residual activity [36] 100% | residual activity [37] 69% | residual activity [38] 100% | residual activity [39] 100% | residual activity [40] 82% | residual activity [41] 100% | residual activity [42] 100% | residual activity [43] 78% | residual activity [44] 89%
